# Patent US5776886A, “Intravaginal preparation containing physiologically active peptide” (Teikoku Seiyaku Kabushiki Kaisha, priority 1993, dated 1998)
# Assays:
# Type in all cases: in vivo, Wistar rats
# [1] = tested on: calcium level in the serum; assay: Experiment 1: serum calcium reduction after human calcitonin intravaginal suppository, sucrose fatty acid ester plus citric acid vs each alone; conditions: for Reduction rate (%) of calcium level in the serum: intravaginal suppository 20 μg, ovariectomized rats
# Protocol: To the mixture was added a commercially available base for intravaginal preparation; Witepsol S-55 (which is prepared from Witepsol E-85 so as to give a final intravaginal suppository having a melting point of 36.5° C., manufactured by Hils Co., Ltd., former Diamit Novel Co., Ltd) which was homogenized by previously warming and stirring thereof so as to give an intravaginal suppository with the total weight of 5.00 g. […] The mixture was poured into a tube (inside diameter: about 3 mm) made of teflon at about 40° C., cooled to solidify, and taken out from the tube. The solidified mixture was cut into pieces (weight: 50 mg) to give intravaginal suppositories for rats containing human calcitonin (20 μg/each). There were also obtained two kinds of intravaginal suppositories prepared by adding citric acid (50 mg) only, and prepared by adding a sucrose fatty acid ester (100 mg) only, likewise. There were obtained intravaginal suppositories containing only human calcitonin without citric acid nor a sucrose fatty acid ester, likewise, which are used as control.
# (§1) An intravaginal suppository was administered into the rat's vagina, and the blood was collected periodically (2, 4 and 6 hours after administration of the test preparation).
# (§2) The serum was separated, and the calcium level in the serum was determined by using a kit for determination of calcium (Calcium C Test Wako; manufactured by Wako Pure Chemical Industries, Ltd.) (n=3).
# [2] = tested on: calcium level in the serum; assay: Experiment 3: effects of various sucrose fatty acid esters on serum calcium reduction; conditions: for Reduction rate (%) of calcium level in the serum: rats
# Protocol: as §1, §2
# In the same manner, there were prepared various sucrose fatty acid esters having the same HLB value but being combined with a different fatty acid (Table B), and four kinds of intravaginal suppositories for rats were prepared by using each 100 mg of sucrose fatty acid ester.
# In the same manner as in Experiment 1, each intravaginal suppository was administered to the rat's vagina, and the blood was collected periodically 2, 4 and 6 hours after administration of intravaginal suppository), and the calcium level in the serum thereof was determined (n=4).
# [3] = tested on: calcium level in the serum; assay: Experiment 4: effects of the concentration of sucrose fatty acid ester on serum calcium reduction
# Protocol: as §1, §2
# Human calcitonin (2 mg) was precisely measured, and thereto were added citric acid (100 mg) and Ryoto-Sugar Ester S-970 (50 mg, 100 mg or 400 mg), and the mixture was mixed well.
# In the same manner as in Experiment 1, each intravaginal suppository was administered to the rat's vagina, and the blood was collected periodically (2 and 4 hours after administration of intravaginal suppository), and the calcium level in the serum thereof was determined (n=3).
substance,measurement,setting,value
Human calcitonin,Reduction rate (%) of calcium level in the serum,"[1]; Control: only human calcitonin, no citric acid nor sucrose fatty acid ester, 2 hr",2.6%
same,Reduction rate (%) of calcium level in the serum,"[1]; Control: only human calcitonin, no citric acid nor sucrose fatty acid ester, 4 hr",2.2%
same,Reduction rate (%) of calcium level in the serum,"[1]; Control: only human calcitonin, no citric acid nor sucrose fatty acid ester, 6 hr",3.8%
same,Reduction rate (%) of calcium level in the serum,"[1]; added: citric acid only, 2 hr",9.5%
same,Reduction rate (%) of calcium level in the serum,"[1]; added: citric acid only, 4 hr",8.0%
same,Reduction rate (%) of calcium level in the serum,"[1]; added: citric acid only, 6 hr",5.7%
same,Reduction rate (%) of calcium level in the serum,"[1]; added: sucrose fatty acid ester (S-970) and citric acid, base Witepsol S-55, 2 hr",14.9%
same,Reduction rate (%) of calcium level in the serum,"[1]; added: sucrose fatty acid ester (S-970) and citric acid, base Witepsol S-55, 4 hr",19.5%
same,Reduction rate (%) of calcium level in the serum,"[1]; added: sucrose fatty acid ester (S-970) and citric acid, base Witepsol S-55, 6 hr",11.1%
same,Reduction rate (%) of calcium level in the serum,"[1]; added: sucrose fatty acid ester (S-970) only, 2 hr",10.6%
same,Reduction rate (%) of calcium level in the serum,"[1]; added: sucrose fatty acid ester (S-970) only, 4 hr",10.5%
same,Reduction rate (%) of calcium level in the serum,"[1]; added: sucrose fatty acid ester (S-970) only, 6 hr",10.7%
same,"calcitonin-absorption promotion effects, on the basis of the reduction rate of the calcium level in the serum",[1]; combination of sucrose fatty acid ester and citric acid compared with either only,far superior
same,Reduction rate (%) of calcium level in the serum,"[2]; Ryoto-Sugar Ester (L-1695), HLB 16, lauric acid, + citric acid, intravaginal suppository 20 μg, 2 hr",12.8%
same,Reduction rate (%) of calcium level in the serum,"[2]; Ryoto-Sugar Ester (L-1695), HLB 16, lauric acid, + citric acid, intravaginal suppository 20 μg, 4 hr",13.4%
same,Reduction rate (%) of calcium level in the serum,"[2]; Ryoto-Sugar Ester (L-1695), HLB 16, lauric acid, + citric acid, intravaginal suppository 20 μg, 6 hr",11.4%
same,Reduction rate (%) of calcium level in the serum,"[2]; Ryoto-Sugar Ester (S-370), HLB 3, stearic acid, + citric acid, intravaginal suppository 20 μg, 2 hr",13.4%
same,Reduction rate (%) of calcium level in the serum,"[2]; Ryoto-Sugar Ester (S-370), HLB 3, stearic acid, + citric acid, intravaginal suppository 20 μg, 4 hr",18.2%
same,Reduction rate (%) of calcium level in the serum,"[2]; Ryoto-Sugar Ester (S-370), HLB 3, stearic acid, + citric acid, intravaginal suppository 20 μg, 6 hr",11.4%
same,Reduction rate (%) of calcium level in the serum,"[2]; Ryoto-Sugar Ester (S-570), HLB 5, stearic acid, + citric acid, intravaginal suppository 20 μg, 2 hr",12.8%
same,Reduction rate (%) of calcium level in the serum,"[2]; Ryoto-Sugar Ester (S-570), HLB 5, stearic acid, + citric acid, intravaginal suppository 20 μg, 4 hr",17.2%
same,Reduction rate (%) of calcium level in the serum,"[2]; Ryoto-Sugar Ester (S-570), HLB 5, stearic acid, + citric acid, intravaginal suppository 20 μg, 6 hr",12.0%
same,Reduction rate (%) of calcium level in the serum,"[2]; Ryoto-Sugar Ester (S-770), HLB 7, stearic acid, + citric acid, intravaginal suppository 20 μg, 2 hr",13.6%
same,Reduction rate (%) of calcium level in the serum,"[2]; Ryoto-Sugar Ester (S-770), HLB 7, stearic acid, + citric acid, intravaginal suppository 20 μg, 4 hr",14.8%
same,Reduction rate (%) of calcium level in the serum,"[2]; Ryoto-Sugar Ester (S-770), HLB 7, stearic acid, + citric acid, intravaginal suppository 20 μg, 6 hr",11.8%
same,Reduction rate (%) of calcium level in the serum,"[2]; Ryoto-Sugar Ester (S-970), HLB 9, stearic acid, + citric acid (Table 3), intravaginal suppository 20 μg, 2 hr",12.2%
same,Reduction rate (%) of calcium level in the serum,"[2]; Ryoto-Sugar Ester (S-970), HLB 9, stearic acid, + citric acid (Table 3), intravaginal suppository 20 μg, 4 hr",17.4%
same,Reduction rate (%) of calcium level in the serum,"[2]; Ryoto-Sugar Ester (S-970), HLB 9, stearic acid, + citric acid (Table 3), intravaginal suppository 20 μg, 6 hr",11.8%
same,Reduction rate (%) of calcium level in the serum,"[2]; Ryoto-Sugar Ester (S-1670), HLB 16, stearic acid, + citric acid, intravaginal suppository 20 μg, 2 hr",11.4%
same,Reduction rate (%) of calcium level in the serum,"[2]; Ryoto-Sugar Ester (S-1670), HLB 16, stearic acid, + citric acid, intravaginal suppository 20 μg, 4 hr",16.4%
same,Reduction rate (%) of calcium level in the serum,"[2]; Ryoto-Sugar Ester (S-1670), HLB 16, stearic acid, + citric acid, intravaginal suppository 20 μg, 6 hr",12.6%
same,Reduction rate (%) of calcium level in the serum,"[2]; Ryoto-Sugar Ester L-595 + L-1695 3:2, HLB 9, lauric acid, + citric acid, intravaginal suppository, 2 hr",11.0%
same,Reduction rate (%) of calcium level in the serum,"[2]; Ryoto-Sugar Ester L-595 + L-1695 3:2, HLB 9, lauric acid, + citric acid, intravaginal suppository, 4 hr",14.4%
same,Reduction rate (%) of calcium level in the serum,"[2]; Ryoto-Sugar Ester L-595 + L-1695 3:2, HLB 9, lauric acid, + citric acid, intravaginal suppository, 6 hr",9.7%
same,Reduction rate (%) of calcium level in the serum,"[2]; Ryoto-Sugar Ester P-070 + P-1670 4:5, HLB 9, palmitic acid, + citric acid, intravaginal suppository, 2 hr",8.2%
same,Reduction rate (%) of calcium level in the serum,"[2]; Ryoto-Sugar Ester P-070 + P-1670 4:5, HLB 9, palmitic acid, + citric acid, intravaginal suppository, 4 hr",17.3%
same,Reduction rate (%) of calcium level in the serum,"[2]; Ryoto-Sugar Ester P-070 + P-1670 4:5, HLB 9, palmitic acid, + citric acid, intravaginal suppository, 6 hr",13.8%
same,Reduction rate (%) of calcium level in the serum,"[2]; Ryoto-Sugar Ester S-370 + S-1670 5:6, HLB 9, stearic acid, + citric acid, intravaginal suppository, 2 hr",6.9%
same,Reduction rate (%) of calcium level in the serum,"[2]; Ryoto-Sugar Ester S-370 + S-1670 5:6, HLB 9, stearic acid, + citric acid, intravaginal suppository, 4 hr",15.3%
same,Reduction rate (%) of calcium level in the serum,"[2]; Ryoto-Sugar Ester S-370 + S-1670 5:6, HLB 9, stearic acid, + citric acid, intravaginal suppository, 6 hr",12.3%
same,Reduction rate (%) of calcium level in the serum,"[2]; Ryoto-Sugar Ester S-970 1:0 (control of Table B), HLB 9, stearic acid, + citric acid (Table 4), intravaginal suppository, 2 hr",6.3%
same,Reduction rate (%) of calcium level in the serum,"[2]; Ryoto-Sugar Ester S-970 1:0 (control of Table B), HLB 9, stearic acid, + citric acid (Table 4), intravaginal suppository, 4 hr",11.6%
same,Reduction rate (%) of calcium level in the serum,"[2]; Ryoto-Sugar Ester S-970 1:0 (control of Table B), HLB 9, stearic acid, + citric acid (Table 4), intravaginal suppository, 6 hr",11.0%
same,promotion effects on absorption of calcitonin,"[2]; combination of sucrose fatty acid ester and citric acid, esters of different HLB value and fatty acid",not affected by either the HLB value of the sucrose fatty acid ester to be used or by the kinds of the fatty acids to be combined
same,calcium level in the blood,"[3]; sucrose fatty acid ester 1, 2 or 8 w/w % with citric acid",reduced at any concentration of the sucrose fatty acid ester to be used
same,Reduction rate (%) of calcium level in the serum,"[3]; sucrose fatty acid ester (S-970) 1 w/w %, citric acid 100 mg per 5.00 g, intravaginal suppository 20 μg, rats, 2 hr",10.8%
